Results from paper PMC9306949 (Clinical Pharmacology in Drug Development, 2022).
Entries after “also recorded” stand apart in the source; their conditions may differ. Read-outs that look alike come from different tables or passages of the source. Marks after values point to notes of the source that are not given here.

Key:
[1] = Urine excretion of navtemadlin and M1; format: in vivo, human
[2] = format: in vivo, human; conditions: for M/P (AUC0‐t), metabolite-to-parent ratio / AUC0‐24 / AUC0‐inf / AUC0‐t / C24 / Cmax: mean (%CV); for t1/2 / AUC0‐24 / AUC0‐inf / AUC0‐t / C24 / Cmax / tmax: plasma; for t1/2: arithmetic mean (%CV); for tmax: median (min-max)
[3] = cited from earlier work
[4] = cited from earlier work; remark: listed apart in the source
[5] = period 1 (old tablet fasted), 0-48 h urine
[6] = Treatment A (reference): new tablet fasted, drug-load analysis
[7] = Treatment A (reference): new tablet fasted, food-effect analysis
[8] = Treatment B (test 1): new tablet fed, food-effect analysis
[9] = Treatment B: 60-mg new tablet, fed (high-fat meal)
[10] = Treatment C (test 2): old tablet fasted, drug-load analysis
[11] = Treatment C: 60-mg old tablet, fasted
[12] = Treatment A: 60-mg new tablet, fasted
[13] = test/reference: B (new tablet fed) vs A (new tablet fasted)
[14] = test/reference: C (old tablet fasted) vs A (new tablet fasted)
[15] = patients with solid tumors or multiple myeloma

mean amount excreted in urine [1, 5]: 17.3 µg | mean fraction of dose excreted in urine [1, 5]: 0.02% | urine excretion ([1]; single 60-mg dose, healthy subjects): negligible | tmax, median ([2]; Treatment A (reference): new tablet fasted, average of 2, drug-load analysis): 2.5 ^d h | tmax, median ([2]; Treatment A (reference): new tablet fasted, average of 2, food-effect analysis): 2.5 ^d h | AUC0‐24, GLSM [2, 6]: 528, N = 30 ng • h/mL | AUC0‐inf, GLSM [2, 6]: 701, N = 28 ng • h/mL | AUC0‐t, GLSM [2, 6]: 646, N = 30 ng • h/mL | Cmax, GLSM [2, 6]: 98, N = 30 ng/mL | AUC0‐24, GLSM [2, 7]: 528, N = 30 ng • h/mL | AUC0‐inf, GLSM [2, 7]: 710, N = 28 ng • h/mL | AUC0‐t, GLSM [2, 7]: 646, N = 30 ng • h/mL | Cmax, GLSM [2, 7]: 98, N = 30 ng/mL | exposure in UGT1A1*28 heterozygous poor metabolizers (6/7 TA repeats) vs WT (6/6 TA repeats) ([2]; Treatment A, n = 16 vs n = 12): generally comparable | AUC0‐24, GLSM [2, 8]: 465, N = 30 ng • h/mL | AUC0‐inf, GLSM [2, 8]: 610, N = 22 ng • h/mL | AUC0‐t, GLSM [2, 8]: 555, N = 30 ng • h/mL | Cmax, GLSM [2, 8]: 117, N = 30 ng/mL | tmax, median [2, 8]: 3.0 ^d h | M/P (AUC0‐t), metabolite-to-parent ratio [2, 9]: 0.2 (38.3); 30 | AUC0‐24, GLSM [2, 10]: 506, N = 30 ng • h/mL | AUC0‐inf, GLSM [2, 10]: 643, N = 26 ng • h/mL | AUC0‐t, GLSM [2, 10]: 585, N = 30 ng • h/mL | Cmax, GLSM [2, 10]: 84, N = 30 ng/mL | tmax, median [2, 10]: 2.0 ^d h | M/P (AUC0‐t), metabolite-to-parent ratio [2, 11]: 0.2 (34.3); 30 | acyl glucuronide to parent drug AUC0‐t ratio ([2]; after correction for molecular weight, across study groups): ≈ 0.2 | time of second peak after dosing (enterohepatic recirculation) ([2]; all 3 treatments): around 10 hours | PK in H. pylori–positive vs H. pylori–negative subjects ([2]; n = 12 positive vs n = 18 negative): not markedly affected | decrease in extent of exposure (AUC0‐24, AUC0‐t, AUC0‐inf) with a high‐fat meal ([2]; new tablet fed vs fasted): 12% to 18% | increase in Cmax with a high‐fat meal ([2]; new tablet fed vs fasted): ≈ 18%; also recorded: ≈ 20% | difference in median tmax between fed and fasted conditions, significance ([2]; new tablet, Wilcoxon signed-rank, alpha level of 0.1): not significant | t1/2 [2, 12]: 16.2 (57.8); 46 h | AUC0‐24 [2, 12]: 607 (60.9); 60 ng • h/mL | AUC0‐inf [2, 12]: 849 (74.1); 46 ng • h/mL | AUC0‐t [2, 12]: 782 (72.2); 60 ng • h/mL | C24 [2, 12]: 7.82 (97.4); 60 ng/mL | Cmax [2, 12]: 118 (70.0); 60 ng/mL | tmax [2, 12]: 2.02 (1.00 – 6.00); 60 h | AUC0‐24 [2, 9]: 532 (56.0); 30 ng • h/mL | AUC0‐inf [2, 9]: 824 (61.1); 22 ng • h/mL | AUC0‐t [2, 9]: 666 (65.8); 30 ng • h/mL | C24 [2, 9]: 5.96 (87.8); 30 ng/mL | Cmax [2, 9]: 133 (52.6); 30 ng/mL | tmax [2, 9]: 3.00 (0.99 ‐ 4.02); 30 h | t1/2 [2, 11]: 13.7 (68.5); 26 h | AUC0‐24 [2, 11]: 609 (68.6); 30 ng • h/mL | AUC0‐inf [2, 11]: 794 (71.6); 26 ng • h/mL | AUC0‐t [2, 11]: 740 (77.5); 30 ng • h/mL | C24 [2, 11]: 7.04 (109.6); 30 ng/mL | Cmax [2, 11]: 101 (65.3); 30 ng/mL | tmax [2, 11]: 2.01 (1.00 – 6.00); 30 h | tmax, difference of medians (90%CI) ([2]; test-reference: B (new tablet fed) minus A (new tablet fasted)): 0.4 (‐0.002‐0.8) ^e , ^g h | tmax, difference of medians (90%CI) ([2]; test-reference: C (old tablet fasted) minus A (new tablet fasted)): 0.1 (–0.3 to 0.6) ^e , ^g h | AUC0‐24, % ratio of least squares means (90%CI) [2, 13]: 88.2 (82.2‐94.6) % | AUC0‐inf, % ratio of least squares means (90%CI) [2, 13]: 86.0 (77.5‐95.4) % | AUC0‐t, % ratio of least squares means (90%CI) [2, 13]: 85.9 (79.9‐92.3) % | Cmax, % ratio of least squares means (90%CI) [2, 13]: 118.7% | AUC0‐24, % ratio of least squares means (90%CI) [2, 14]: 95.8 (89.4‐102.7) % | AUC0‐inf, % ratio of least squares means (90%CI) [2, 14]: 91.8 (85.3 to 98.6) % | AUC0‐t, % ratio of least squares means (90%CI) [2, 14]: 90.6 (84.2 to 97.6) % | Cmax, % ratio of least squares means (90%CI) [2, 14]: 85.7 (77.9‐94.2) %
SMILES: CC(C)[C@@H](CS(=O)(=O)C(C)C)N1C(=O)[C@@](C)(CC(=O)O[C@@H]2O[C@H](C(=O)O)[C@@H](O)[C@H](O)[C@H]2O)C[C@H](c2cccc(Cl)c2)[C@H]1c1ccc(Cl)cc1 [M1, navtemadlin acyl glucuronide]
mean accumulation ([3]; 7‐day once‐daily dosing period, patients): < 2 fold | mean (SD) terminal half‐life (t1/2) [3, 15]: 14.0 (6.07) hours | mean metabolite‐to‐parent 24‐hour AUC ratio [3, 15]: 0.461 | mean tmax [3, 15]: 2 to 4 h | share of excreted biliary radioactivity ([4]; rat bile): accounts for most of the excreted biliary radioactivity | presence in feces ([4]; rat feces, hydrolysis in the intestine): not present in rat feces
